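These data come from cells grown in 96-well plates and exposed to compound for 48 hours at five concentrations. The concentration for 50% growth inhibition is given as GI50.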 Active and inactive are the calls of the source. Cut-off read from the data, not from the text of the source: active = GI50 up to about 1.1 µM and inactive = higher.
Experiments:
Test in all cases: inhibition of tumour cell growth, NCI panel, 48 h
A498 = test system: A498
U-251 = test system: U-251
MDA-MB-231 = test system: MDA-MB-231
UO-31 = test system: UO-31
Hs-578T = test system: Hs-578T
DU-145 = test system: DU-145
OVCAR-5 = test system: OVCAR-5
SR = test system: SR
IGROV-1 = test system: IGROV-1
RPMI-8226 = test system: RPMI-8226
UACC-62 = test system: UACC-62
PC-3 = test system: PC-3
SNB-75 = test system: SNB-75
SF-295 = test system: SF-295
OVCAR-4 = test system: OVCAR-4
MDA-N = test system: MDA-N

SMILES | GI50 (A498) | GI50 (U-251) | GI50 (MDA-MB-231) | GI50 (UO-31) | GI50 (Hs-578T) | GI50 (DU-145) | GI50 (OVCAR-5) | GI50 (SR) | GI50 (IGROV-1) | GI50 (RPMI-8226) | GI50 (UACC-62) | GI50 (PC-3) | GI50 (SNB-75) | GI50 (SF-295) | GI50 (OVCAR-4) | GI50 (MDA-N)
CNc1ncc(-c2nnnn2-c2ccccc2)c(CN(C)C)n1 | > 100 µM (inactive) | > 100 µM (inactive) | > 100 µM (inactive) | > 100 µM (inactive) | > 100 µM (inactive) | > 100 µM (inactive) | > 100 µM (inactive) | > 100 µM (inactive) | > 100 µM (inactive) | > 100 µM (inactive) | > 100 µM (inactive) | > 100 µM (inactive) | > 100 µM (inactive) | > 100 µM (inactive) | – | –
COc1cc2c(cc1OCCCCCOc1cc3c(cc1OC)C(=O)N1CCC[C@H]1CN3)N=C[C@@H]1CCCN1C2=O | – | 1.49 µM (inactive) | 2.49 µM (inactive) | 12.3 µM (inactive) | 6.75 µM (inactive) | 11.1 µM (inactive) | 16.9 µM (inactive) | 0.249 µM (active) | 3.33 µM (inactive) | – | 1.56 µM (inactive) | 10.1 µM (inactive) | 15 µM (inactive) | 6.14 µM (inactive) | 25.6 µM (inactive) | –
CC1(C)O[C@@H]2[C@@H](COC(C)(C)O[C@H]2C2SCCCS2)O1 | > 100 µM (inactive) | > 100 µM (inactive) | > 100 µM (inactive) | > 100 µM (inactive) | – | > 100 µM (inactive) | > 100 µM (inactive) | – | – | > 100 µM (inactive) | > 100 µM (inactive) | > 100 µM (inactive) | – | > 100 µM (inactive) | > 100 µM (inactive) | > 100 µM (inactive)
c1ccc2c3nnc(c2c1)SCCCSc1nnc(c2ccccc12)SCCCS3 | 61.1 µM (inactive) | 76 µM (inactive) | 17.2 µM (inactive) | > 100 µM (inactive) | – | 33.7 µM (inactive) | > 100 µM (inactive) | 84.1 µM (inactive) | 47.2 µM (inactive) | > 100 µM (inactive) | 31.7 µM (inactive) | 97.7 µM (inactive) | 25.2 µM (inactive) | 92.3 µM (inactive) | 23.4 µM (inactive) | > 100 µM (inactive)
COc1ccc(OC)c2c1ccc1c(C)c3ccccc3c(C)c12 | 61 µM (inactive) | > 100 µM (inactive) | 16 µM (inactive) | 82.2 µM (inactive) | – | > 100 µM (inactive) | > 100 µM (inactive) | 36.6 µM (inactive) | > 100 µM (inactive) | > 100 µM (inactive) | > 100 µM (inactive) | > 100 µM (inactive) | > 100 µM (inactive) | – | 79.4 µM (inactive) | 79.1 µM (inactive)
O=C1C(Cl)=C(N[C@@H](Cc2ccccc2)C(=O)OCc2ccccc2)C(=O)c2c(O)ccc(O)c21 | 7.33 µM (inactive) | 3.01 µM (inactive) | 2.55 µM (inactive) | – | 4.89 µM (inactive) | 4.45 µM (inactive) | 6.18 µM (inactive) | – | 4.08 µM (inactive) | > 10 µM (inactive) | 2.96 µM (inactive) | 3.72 µM (inactive) | 4.73 µM (inactive) | 5.66 µM (inactive) | 3.31 µM (inactive) | 2.89 µM (inactive)
CC1(C)COC(c2ccc(C(=O)c3ccc(Cl)cc3)cc2)=N1 | – | > 100 µM (inactive) | > 100 µM (inactive) | 58.7 µM (inactive) | > 100 µM (inactive) | > 100 µM (inactive) | > 100 µM (inactive) | – | > 100 µM (inactive) | > 100 µM (inactive) | > 100 µM (inactive) | > 100 µM (inactive) | > 100 µM (inactive) | 65.2 µM (inactive) | – | > 100 µM (inactive)
Cc1cc2c(cc1O)CC[C@@H]1[C@@H]2CC[C@]2(C)[C@@H](O)CC[C@@H]12 | 18.7 µM (inactive) | 5.73 µM (inactive) | 9.38 µM (inactive) | 14.8 µM (inactive) | 2.51 µM (inactive) | – | 21.2 µM (inactive) | 1.83 µM (inactive) | 15.8 µM (inactive) | 4.74 µM (inactive) | – | 11.1 µM (inactive) | 5.43 µM (inactive) | 6.08 µM (inactive) | 12.4 µM (inactive) | 1.9 µM (inactive)
O=[N+]([O-])c1ccc2nc(=S)[nH]n2c1 | > 100 µM (inactive) | > 100 µM (inactive) | > 100 µM (inactive) | > 100 µM (inactive) | > 100 µM (inactive) | > 100 µM (inactive) | > 100 µM (inactive) | > 100 µM (inactive) | > 100 µM (inactive) | > 100 µM (inactive) | > 100 µM (inactive) | – | > 100 µM (inactive) | > 100 µM (inactive) | > 100 µM (inactive) | –
CCOC(=O)/C(=C\NC[C@@H](C)O)c1nc2ccccc2[nH]1 | 55 µM (inactive) | – | – | 0.33 µM (active) | – | > 100 µM (inactive) | > 100 µM (inactive) | 0.0473 µM (active) | 37.8 µM (inactive) | 29.1 µM (inactive) | 40.9 µM (inactive) | – | > 100 µM (inactive) | 61.1 µM (inactive) | 83.8 µM (inactive) | > 100 µM (inactive)

— ChEMBL document CHEMBL1201862, “PubChem BioAssay data set” (2004)
